Experimental data taken from patent US20230091472A1, “GALECTIN-3 INHIBITING C-GLYCOSIDE KETONES, ETHERS, AND ALCOHOLS” (GLYCOMIMETICS, INC., priority 2019, published 2023).

What follows are molecules tested against T1, galectin-3 (Homo sapiens, UniProt P17931) (assay: Galectin-3 Activity - ELISA Assay (inhibition of binding of galectin-3 to a Galβ1-3GlcNAc carbohydrate structure)). Conditions: competitive ELISA; galectin-3 binding to immobilized Galβ1-3GlcNAcβ1-3Galβ1-4GlcNAcβ-PAA-biotin polymer; A450 readout; read-out: IC50 (μM), Galectin-3 Antagonist Activity.
T1 construct: purchased IBL IBATGPO414
T1 sequence (P17931 whole entry): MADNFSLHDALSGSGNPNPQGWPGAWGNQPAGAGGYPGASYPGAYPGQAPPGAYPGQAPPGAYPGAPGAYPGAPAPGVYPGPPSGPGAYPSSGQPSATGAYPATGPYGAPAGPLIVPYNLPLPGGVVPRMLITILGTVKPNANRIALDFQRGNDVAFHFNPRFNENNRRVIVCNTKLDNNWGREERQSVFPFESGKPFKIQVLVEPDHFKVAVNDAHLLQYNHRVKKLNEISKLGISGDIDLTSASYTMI
Procedure: Galectin-3 antagonists were evaluated for their ability to inhibit binding of galectin-3 to a Galβ1-3GlcNAc carbohydrate structure. The detailed protocol was as follows. A 1 ug/mL suspension of a Galβ1-3GlcNAcβ1-3Galβ1-4GlcNAcβ-PAA-biotin polymer (Glycotech, catalog number 01-096) was prepared. A 100 uL aliquot of the polymer was added to the wells of a 96-well streptavidin-coated plate (R&D Systems, catalog number CP004). A 100 uL aliquot of 1× Tris Buffered Saline (TBS, Sigma, catalog number T5912-10X) was added to control wells. The polymer was allowed to bind to the streptavidin-coated wells for 1.5 hours at room temperature. The contents of the wells were discarded and 200 uL of 1×TBS containing 1% bovine serum albumin (BSA) was added to each well as a blocking reagent and the plate was kept at room temperature for 30 minutes. The wells were washed three times with 1×TBS containing 0.1% BSA. A serial dilution of test compounds was prepared in a separate V-bottom plate (Corning, catalog number 3897). A 75 uL aliquot of the highest concentration of the compound to be tested was added to the first well in a column of the V-bottom plate then 15 ul were serially transferred into 60 uL 1×TBS through the remaining wells in the column to generate a 1 to 5 serial dilution. A 60 uL aliquot of 2 ug/mL galectin-3 (IBL, catalog number IBATGPO414) was added to each well in the V-bottom plate. A 100 uL aliquot of the galectin-3/test compound mixture was transferred from the V-bottom plate into the assay plate containing the Galβ1-3GlcNAc polymer. Four sets of control wells in the assay plate were prepared in duplicate containing 1) both Galβ1-3GlcNAc polymer and galectin-3, 2) neither the polymer nor galectin-3, 3) galectin-3 only, no polymer, or 4) polymer only, no galectin-3. The plate was gently rocked for 1.5 hours at room temperature. The wells were washed four times with TBS/0.1% BSA. A 100 uL aliquot of anti-galectin-3 antibody conjugated to horse radish peroxidase (R&D Systems, from DGAL30 kit) was added to each well and the plate was kept at room temperature for 1 hour. The wells were washed four times with TBS/0.1% BSA. A 100 uL aliquot of TMB substrate solution was added to each well. The TMB substrate solution was prepared by making a 1:1 mixture of TMB Peroxidase Substrate (KPL, catalog number 5120-0048) and Peroxidase Substrate Solution B (KPL, catalog number 5120-0037). The plate was kept at room temperature for 10 to 20 minutes. The color development was stopped by adding 100 uL 10% phosphoric acid (RICCA Chemical Co., catalog number 5850-16). The absorbance at 450 nm (A450) was measured using a FlexStation 3 plate reader (Molecular Devices). Plots of A450 versus test compound concentration and IC50 determinations were made using GraphPad Prism 6.
In the case of CC(=O)[C@@H](OCc1ccc(Br)cc1)[C@@H]1OC(CO)[C@H](O)C(n2cc(-c3cc(F)c(F)c(F)c3)nn2)C1O (stereo partly drawn) [Compound 16], the IC50 is reported as 0.32 µM. Work on COC1C(n2cc(-c3cc(F)c(F)c(F)c3)nn2)[C@@H](O)C(CO)O[C@H]1[C@H](OCc1ccc(Cl)cc1)C(C)=O (stereo partly drawn) [Compound 32] yielded an IC50 of 0.82 µM. COC1C(n2cc(-c3cc(F)c(F)c(F)c3)nn2)[C@@H](O)C(CO)O[C@H]1[C@H](OCc1ccc(Cl)cc1)C(=O)CC(C)C (stereo partly drawn) [Compound 33] gave an IC50 of 0.63 µM. Work on COC1C(n2cc(-c3cc(F)c(F)c(F)c3)nn2)[C@@H](O)C(CO)O[C@H]1[C@H](OCc1ccc(Cl)cc1)C(=O)c1cccs1 (stereo partly drawn) [Compound 34] yielded an IC50 of 0.84 µM. With CCC(=O)[C@@H](OCc1ccc(Cl)cc1)[C@@H]1OC(CO)[C@H](O)C(n2cc(-c3cc(F)c(F)c(F)c3)nn2)C1OC (stereo partly drawn) [Compound 35] the IC50 was 0.75 µM. Work on COC1C(n2cc(-c3cc(F)c(F)c(F)c3)nn2)[C@@H](O)C(CO)O[C@H]1[C@H](OCc1ccc(Cl)cc1)[C@@H](C)O (stereo partly drawn) [Compound 41] yielded an IC50 of 0.59 µM. With COC1C(n2cc(-c3cc(F)c(F)c(F)c3)nn2)[C@@H](O)C(CO)O[C@H]1[C@H](OCc1ccc(C(F)(F)F)nc1)C(C)(C)O (stereo partly drawn) [Compound 44] the IC50 was 57 µM. CCC(=O)[C@@H](OCc1ccc(Cl)cc1)[C@@H]1OC(CO)[C@H](O)C(n2cc(-c3cc(F)c(F)c(F)c3)nn2)C1O (stereo partly drawn) [Compound 74] was tested, and the IC50 was 0.32 µM. In the case of COC1C(n2cc(-c3cc(F)c(F)c(F)c3)nn2)[C@@H](O)C(CO)O[C@H]1[C@H](OCc1ccc(Cl)cc1)C(=O)C1CC1 (stereo partly drawn) [Compound 75], the IC50 is reported as 1.18 µM. [2H]C([2H])([2H])OC1C(n2cc(-c3cc(F)c(F)c(F)c3)nn2)[C@@H](O)C(CO)O[C@H]1[C@H](OCc1ccc(Cl)cc1)C(=O)C([2H])([2H])C([2H])([2H])[2H] (stereo partly drawn) [Compound 76] was tested, and the IC50 was 0.66 µM. In the case of [2H]C([2H])([2H])OC1C(n2cc(-c3cc(F)c(F)c(F)c3)nn2)[C@@H](O)C(CO)O[C@H]1[C@H](OCc1ccc(Cl)cc1)C(C)=O (stereo partly drawn) [Compound 77], the IC50 is reported as 1.09 µM. Work on [2H]C([2H])([2H])OC1C(n2cc(-c3cc(F)c(F)c(F)c3)nn2)[C@@H](O)C(CO)O[C@H]1[C@H](OCc1ccc(Br)cc1)C(=O)C([2H])([2H])C([2H])([2H])[2H] (stereo partly drawn) [Compound 78] yielded an IC50 of 0.5 µM. In the case of [2H]C([2H])([2H])OC1C(n2cc(-c3cc(F)c(F)c(F)c3)nn2)[C@@H](O)C(CO)O[C@H]1[C@H](OCc1ccc(Br)cc1)C(=O)c1ccc(F)cc1 (stereo partly drawn) [Compound 79], the IC50 is reported as 1.76 µM. For [2H]C([2H])([2H])OC1C(n2cc(-c3cc(F)c(F)c(F)c3)nn2)[C@@H](O)C(CO)O[C@H]1[C@H](OCc1ccc(Br)cc1)C(=O)c1ccsc1 (stereo partly drawn) [Compound 80], the IC50 was 0.44 µM. In the case of [2H]C([2H])([2H])OC1C(n2cc(-c3cc(F)c(F)c(F)c3)nn2)[C@@H](O)C(CO)O[C@H]1[C@H](OCc1ccc(Br)cc1)C(=O)c1ccc(Cl)s1 (stereo partly drawn) [Compound 81], the IC50 is reported as 3.21 µM.
